Legend:
GST-Bcl-2 = assay: TR-FRET binding assay, Bcl-2; conditions: TR-FRET Ki values
In short: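 Compounds serially diluted in DMSO from 50 μM (2× starting concentration, 10% DMSO), mixed with GST-tagged protein, F-Bak peptide probe and Tb-labeled antibody, incubated 3 h at room temperature.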

FL5.12/Bcl-2 cells = assay: FL5.12/Bcl-2 cell viability assay; format: cell-based, murine; conditions: ratio of canine platelet EC50 to FL5.12/Bcl-2 EC50
In short: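 Viability measured by CellTitre Glo after FL5.12/Bcl-2 murine cells, starved of IL-3 for 48 hrs, were treated with compounds for another 24 hrs. Killing reflects inhibition of Bcl-2 sequestration of Bim and Puma.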

CN1CCC(Nc2ccc(S(=O)(=O)NC(=O)c3ccc(N4CCN(CC5=C(c6ccc(Cl)cc6)CC(C)(C)CC5)CC4)cc3Oc3ccc4[nH]ccc4c3)cc2S(=O)(=O)C(F)(F)Cl)CC1 [Example 74, N-({3-{[chloro(difluoro)methyl]sulfonyl}-4-[(1-methylpiperidin-4-yl)amino]phenyl}sulfonyl)-4-(4-{[2-(4-chlorophenyl)-4,4-dimethylcyclohex-1-en-1-yl]methyl}piperazin-1-yl)-2-(1H-indol-5-yloxy)benzamide]
Binding selectivity ratio (Bcl-XL Ki/Bcl-2 Ki) (GST-Bcl-2): 1262.5 | Selectivity Ratio (Platelet EC50/FL5.12/Bcl-2 EC50) (FL5.12/Bcl-2 cells): 1989

CN1CCN(CCCNc2ccc(S(=O)(=O)NC(=O)c3ccc(N4CCN(CC5=C(c6ccc(Cl)cc6)CC(C)(C)CC5)CC4)cc3Oc3cccc4[nH]ccc34)cc2[N+](=O)[O-])CC1 [Example 99, 4-(4-{[2-(4-chlorophenyl)-4,4-dimethylcyclohex-1-en-1-yl]methyl}piperazin-1-yl)-2-(1H-indol-4-yloxy)-N-[(4-{[3-(4-methylpiperazin-1-yl)propyl]amino}-3-nitrophenyl)sulfonyl]benzamide]
Binding selectivity ratio (Bcl-XL Ki/Bcl-2 Ki) (GST-Bcl-2): 138.3 | Selectivity Ratio (Platelet EC50/FL5.12/Bcl-2 EC50) (FL5.12/Bcl-2 cells): 2440

CC1(C)CCC(CN2CCN(c3ccc(C(=O)NS(=O)(=O)c4ccc(NCCCN5CCCC5)c([N+](=O)[O-])c4)c(Oc4cccc5[nH]ccc45)c3)CC2)=C(c2ccc(C(F)(F)F)cc2)C1 [Example 69, 4-[4-({4,4-dimethyl-2-[4-(trifluoromethyl)phenyl]cyclohex-1-en-1-yl}methyl)piperazin-1-yl]-2-(1H-indol-4-yloxy)-N-({3-nitro-4-[(3-pyrrolidin-1-ylpropyl)amino]phenyl}sulfonyl)benzamide]
Binding selectivity ratio (Bcl-XL Ki/Bcl-2 Ki) (GST-Bcl-2): 74 | Selectivity Ratio (Platelet EC50/FL5.12/Bcl-2 EC50) (FL5.12/Bcl-2 cells): >666

CN1CCC(Nc2ccc(S(=O)(=O)NC(=O)c3ccc(N4CCN(CC5=C(c6ccc(Cl)cc6)CC(C)(C)C5)CC4)cc3Oc3cccc4[nH]ccc34)cc2[N+](=O)[O-])CC1 [Example 144, 4-(4-{[2-(4-chlorophenyl)-4,4-dimethylcyclopent-1-en-1-yl]methyl}piperazin-1-yl)-2-(1H-indol-4-yloxy)-N-({4-[(1-methylpiperidin-4-yl)amino]-3-nitrophenyl}sulfonyl)benzamide]
Binding selectivity ratio (Bcl-XL Ki/Bcl-2 Ki) (GST-Bcl-2): >12.2 | Selectivity Ratio (Platelet EC50/FL5.12/Bcl-2 EC50) (FL5.12/Bcl-2 cells): 864

O=C(NS(=O)(=O)c1ccc(NCCCN2CCCC2)c([N+](=O)[O-])c1)c1ccc(N2CCN(CC3=C(c4ccc(Cl)cc4)CCCCC3)CC2)cc1Oc1cccc2[nH]ccc12 [Example 141, 4-(4-{[2-(4-chlorophenyl)cyclohept-1-en-1-yl]methyl}piperazin-1-yl)-2-(1H-indol-4-yloxy)-N-({3-nitro-4-[(3-pyrrolidin-1-ylpropyl)amino]phenyl}sulfonyl)benzamide]
Binding selectivity ratio (Bcl-XL Ki/Bcl-2 Ki) (GST-Bcl-2): 42.6 | Selectivity Ratio (Platelet EC50/FL5.12/Bcl-2 EC50) (FL5.12/Bcl-2 cells): >661

CN1CCC(Nc2ccc(S(=O)(=O)NC(=O)c3ccc(N4CCN(CC5=C(c6ccc(Cl)cc6)CCCCCC5)CC4)cc3Oc3cccc4[nH]ccc34)cc2[N+](=O)[O-])CC1 [Example 146, 4-(4-{[2-(4-chlorophenyl)cyclooct-1-en-1-yl]methyl}piperazin-1-yl)-2-(1H-indol-4-yloxy)-N-({4-[(1-methylpiperidin-4-yl)amino]-3-nitrophenyl}sulfonyl)benzamide]
Binding selectivity ratio (Bcl-XL Ki/Bcl-2 Ki) (GST-Bcl-2): >14.9 | Selectivity Ratio (Platelet EC50/FL5.12/Bcl-2 EC50) (FL5.12/Bcl-2 cells): 145

CN1CCN(Nc2ccc(S(=O)(=O)NC(=O)c3ccc(N4CCN(CC5=C(c6ccc(Cl)cc6)CC(C)(C)CC5)CC4)cc3Oc3ccc4[nH]ccc4c3)cc2[N+](=O)[O-])CC1 [Example 174, 4-(4-{[2-(4-chlorophenyl)-4,4-dimethylcyclohex-1-en-1-yl]methyl}piperazin-1-yl)-2-(1H-indol-5-yloxy)-N-({4-[(4-methylpiperazin-1-yl)amino]-3-nitrophenyl}sulfonyl)benzamide]
Binding selectivity ratio (Bcl-XL Ki/Bcl-2 Ki) (GST-Bcl-2): 591.3 | Selectivity Ratio (Platelet EC50/FL5.12/Bcl-2 EC50) (FL5.12/Bcl-2 cells): 1857

CN(C)CCOc1ccc(-c2ccc(Cl)cc2)c(CN2CCN(c3ccc(C(=O)NS(=O)(=O)c4ccc(NCCCN5CCCC5)c([N+](=O)[O-])c4)c(Oc4ccc5[nH]ccc5c4)c3)CC2)c1 [Example 135, 4-[4-({4′-chloro-4-[2-(dimethylamino)ethoxy]-1,1′-biphenyl-2-yl}methyl)piperazin-1-yl]-2-(1H-indol-5-yloxy)-N-({3-nitro-4-[(3-pyrrolidin-1-ylpropyl)amino]phenyl}sulfonyl)benzamide]
Binding selectivity ratio (Bcl-XL Ki/Bcl-2 Ki) (GST-Bcl-2): 779.9 | Selectivity Ratio (Platelet EC50/FL5.12/Bcl-2 EC50) (FL5.12/Bcl-2 cells): 108

O=C(NS(=O)(=O)c1ccc(NCCCN2CCOCC2)c([N+](=O)[O-])c1)c1ccc(N2CCN(Cc3ccccc3-c3ccc(Cl)cc3)CC2)cc1Oc1ccccc1 [Example 155, 4-{4-[(4′-chloro-1,1′-biphenyl-2-yl)methyl]piperazin-1-yl}-N-({4-[(3-morpholin-4-ylpropyl)amino]-3-nitrophenyl}sulfonyl)-2-phenoxybenzamide]
Binding selectivity ratio (Bcl-XL Ki/Bcl-2 Ki) (GST-Bcl-2): 77.8 | Selectivity Ratio (Platelet EC50/FL5.12/Bcl-2 EC50) (FL5.12/Bcl-2 cells): >119

CC1(C)CCC(CN2CCN(c3ccc(C(=O)NS(=O)(=O)c4ccc(NC5CCN(C6CCCC6)CC5)c([N+](=O)[O-])c4)c(Oc4ccc5[nH]ccc5c4)c3)CC2)=C(c2ccc(Cl)cc2)C1 [Example 26, 4-(4-{[2-(4-chlorophenyl)-4,4-dimethylcyclohex-1-en-1-yl]methyl}piperazin-1-yl)-N-({4-[(1-cyclopentylpiperidin-4-yl)amino]-3-nitrophenyl}sulfonyl)-2-(1H-indol-5-yloxy)benzamide]
Binding selectivity ratio (Bcl-XL Ki/Bcl-2 Ki) (GST-Bcl-2): >4714.3 | Selectivity Ratio (Platelet EC50/FL5.12/Bcl-2 EC50) (FL5.12/Bcl-2 cells): >1429

CN(C)CCOc1cccc(-c2ccc(Cl)cc2)c1CN1CCN(c2ccc(C(=O)NS(=O)(=O)c3ccc(NCCCN4CCCC4)c([N+](=O)[O-])c3)c(Oc3ccccc3)c2)CC1 [Example 123, 4-[4-({4′-chloro-3-[2-(dimethylamino)ethoxy]-1,1′-biphenyl-2-yl}methyl)piperazin-1-yl]-N-({3-nitro-4-[(3-pyrrolidin-1-ylpropyl)amino]phenyl}sulfonyl)-2-phenoxybenzamide]
Binding selectivity ratio (Bcl-XL Ki/Bcl-2 Ki) (GST-Bcl-2): 91.5 | Selectivity Ratio (Platelet EC50/FL5.12/Bcl-2 EC50) (FL5.12/Bcl-2 cells): 32

CN1CCC(Nc2ccc(S(=O)(=O)NC(=O)c3ccc(N4CCN(CC5=C(c6ccc(Cl)cc6)CC(C)(C)CC5)CC4)cc3Oc3ccc4[nH]ncc4c3)cc2[N+](=O)[O-])CC1 [Example 21, 4-(4-{[2-(4-chlorophenyl)-4,4-dimethylcyclohex-1-en-1-yl]methyl}piperazin-1-yl)-2-(1H-indazol-5-yloxy)-N-({4-[(1-methylpiperidin-4-yl)amino]-3-nitrophenyl}sulfonyl)benzamide]
Binding selectivity ratio (Bcl-XL Ki/Bcl-2 Ki) (GST-Bcl-2): 35.1 | Selectivity Ratio (Platelet EC50/FL5.12/Bcl-2 EC50) (FL5.12/Bcl-2 cells): >49
